Test system: diabetic neuropathy
Test: action of minoxidil on diabetic neuropathy (one foot minoxidil, other foot placebo, blinded)
Type: in vivo, human
Description: Example: action of minoxidil on diabetic neuropathy. A subject with a history of type II diabetes and painful symmetric diabetic neuropathy with stable blood sugars for at least 4 weeks prior to beginning therapy had minoxidil applied to one foot and placebo applied to the other foot in a blinded fashion. […] They had not taken any other pain medication 3 months prior to initiating treatment and during treatment. They also had significant skin dryness. Within 2 weeks the subject reported a VAS score improvement of 3 on the foot with the minoxidil treatment.

In the case of `Nc1cc(N2CCCCC2)nc(N)[n+]1[O-]` [minoxidil, 6-(1-piperidinyl)pyrimidine-2,4-diamine 3-oxide], the Re-growth of hair (foot treated with minoxidil vs placebo foot, subject had hair loss on the feet up to mid-calf) is reported as “Re-growth of hair was found on the side treated with minoxidil only”, the “Improvement of the dryness of the skin” value (foot treated with minoxidil vs placebo foot, subject had significant skin dryness) is reported as “Improvement of the dryness of the skin was also noted on the side treated with minoxidil only” and the VAS score improvement (person, type II diabetes, painful symmetric diabetic neuropathy, minoxidil applied to one foot, within 2 weeks) is reported as 3.

Reference: US20090018151A1, “Topical Treatment of Peripheral diabetic complications” (priority 2007, published 2009)
